Experimental data as given in ChEMBL document CHEMBL4052729, “Discovery of novel dengue virus entry inhibitors via a structure-based approach” (Bioorg Med Chem Lett, 2017).
pEC50: −log10 of the molar value. Converted amounts (≈) assume the structure as drawn.

How the values were obtained:
[1] = Cytotoxicity against human A549 cells by MTT assay; assay type: cell-based
[2] = Selectivity index, ratio of CC50 for human A549 cells to EC50 for DENV2
dengue virus type 2 = assay: Antiviral activity against DENV2 infected in human A549 or golden hamster BHK21 cells preincubated with viral inoculum for 30 mins followed by viral inoculum removal after 1 hr and subsequently incubated with fresh medium containing compound and measured 8 hrs post-infection by luciferase reporter gene assay; assay type: functional, cell-based
[3] = Cytotoxicity against golden hamster BHK21 cells by MTT assay; assay type: cell-based, Mesocricetus auratus, BHK-21
[4] = system: Bovine viral diarrhea virus 1; assay: Antiviral activity against BVDV; assay type: functional; conditions: Bovine viral diarrhea virus isolates and strains
[5] = Selectivity index, ratio of CC50 for golden hamster BHK21 cells to EC50 for DENV2
[6] = Aqueous solubility of the compound in buffer at pH 6.4 after 48 hrs UV spectroscopy based shake flask method; assay type: physicochemical
[7] = Aqueous solubility of the compound in buffer at pH 2.0 after 48 hrs UV spectroscopy based shake flask method; assay type: physicochemical
[8] = Stability of the compound in pH 7.4 PBS buffer after 24 to 48 hrs by chromatographic method; assay type: physicochemical
[9] = Aqueous solubility of the compound in buffer at pH 7.4 after 48 hrs UV spectroscopy based shake flask method; assay type: physicochemical

Structure (SMILES)	CC50 [1]	Ratio CC50/EC50 [2]	pEC50 (dengue virus type 2)	CC50 [3]	pEC50 [4]	Ratio CC50/EC50 [5]	solubility thermodynamic at 48 h [6]	solubility thermodynamic at 48 h [7]	Stability [8]	solubility thermodynamic at 48 h [9]
O=C(Nc1ccccc1OCc1ccc(Cl)c(Cl)c1)c1ccco1	> 100 µM	>5	4.64	> 100 µM	< 4.30	>5				
CN1C(C(=O)Nc2ccccn2)=C(O)c2ccccc2S1(=O)=O [PIROXICAM]							7.3 µg/mL (≈ 22 µM)			
O=C(NC(=S)N1CCc2ccccc21)c1ccc(C#Cc2ccccc2)nc1	> 100 µM	>4	4.54	> 100 µM	< 4.30	>4				
O=C1Nc2ccc(Cl)cc2[C@@](C#CC2CC2)(C(F)(F)F)O1 [EFAVIRENZ]							68.3 µg/mL (≈ 216 µM)			
O=C(Nc1ccc(Oc2ncnc3cc(Cl)ccc23)nc1)c1ccc(-c2ccccn2)s1	> 100 µM	>32	5.51	> 100 µM	< 4.30	>32	10.1 µg/mL (≈ 22 µM)	12.7 µg/mL (≈ 27.6 µM)	> 48 h	2.9 µg/mL (≈ 6.31 µM)
O=C(CSCC(=O)Nc1ccc(OC(F)(F)F)cc1)NNC(=S)Nc1ccccc1	> 100 µM	>20	5.29	> 100 µM	< 4.30	>20	13.1 µg/mL (≈ 28.6 µM)	8.2 µg/mL (≈ 17.9 µM)	> 48 h	1.2 µg/mL (≈ 2.62 µM)
